# Source: ChEMBL document CHEMBL1201862, “PubChem BioAssay data set” (2004)
# Active and inactive are the calls of the source.
# Legend:
# [1] = target: T1, Histone-lysine N-methyltransferase NSD2 (Homo sapiens, UniProt O96028); assay type: biochemical
# T1 sequence (O96028 whole entry): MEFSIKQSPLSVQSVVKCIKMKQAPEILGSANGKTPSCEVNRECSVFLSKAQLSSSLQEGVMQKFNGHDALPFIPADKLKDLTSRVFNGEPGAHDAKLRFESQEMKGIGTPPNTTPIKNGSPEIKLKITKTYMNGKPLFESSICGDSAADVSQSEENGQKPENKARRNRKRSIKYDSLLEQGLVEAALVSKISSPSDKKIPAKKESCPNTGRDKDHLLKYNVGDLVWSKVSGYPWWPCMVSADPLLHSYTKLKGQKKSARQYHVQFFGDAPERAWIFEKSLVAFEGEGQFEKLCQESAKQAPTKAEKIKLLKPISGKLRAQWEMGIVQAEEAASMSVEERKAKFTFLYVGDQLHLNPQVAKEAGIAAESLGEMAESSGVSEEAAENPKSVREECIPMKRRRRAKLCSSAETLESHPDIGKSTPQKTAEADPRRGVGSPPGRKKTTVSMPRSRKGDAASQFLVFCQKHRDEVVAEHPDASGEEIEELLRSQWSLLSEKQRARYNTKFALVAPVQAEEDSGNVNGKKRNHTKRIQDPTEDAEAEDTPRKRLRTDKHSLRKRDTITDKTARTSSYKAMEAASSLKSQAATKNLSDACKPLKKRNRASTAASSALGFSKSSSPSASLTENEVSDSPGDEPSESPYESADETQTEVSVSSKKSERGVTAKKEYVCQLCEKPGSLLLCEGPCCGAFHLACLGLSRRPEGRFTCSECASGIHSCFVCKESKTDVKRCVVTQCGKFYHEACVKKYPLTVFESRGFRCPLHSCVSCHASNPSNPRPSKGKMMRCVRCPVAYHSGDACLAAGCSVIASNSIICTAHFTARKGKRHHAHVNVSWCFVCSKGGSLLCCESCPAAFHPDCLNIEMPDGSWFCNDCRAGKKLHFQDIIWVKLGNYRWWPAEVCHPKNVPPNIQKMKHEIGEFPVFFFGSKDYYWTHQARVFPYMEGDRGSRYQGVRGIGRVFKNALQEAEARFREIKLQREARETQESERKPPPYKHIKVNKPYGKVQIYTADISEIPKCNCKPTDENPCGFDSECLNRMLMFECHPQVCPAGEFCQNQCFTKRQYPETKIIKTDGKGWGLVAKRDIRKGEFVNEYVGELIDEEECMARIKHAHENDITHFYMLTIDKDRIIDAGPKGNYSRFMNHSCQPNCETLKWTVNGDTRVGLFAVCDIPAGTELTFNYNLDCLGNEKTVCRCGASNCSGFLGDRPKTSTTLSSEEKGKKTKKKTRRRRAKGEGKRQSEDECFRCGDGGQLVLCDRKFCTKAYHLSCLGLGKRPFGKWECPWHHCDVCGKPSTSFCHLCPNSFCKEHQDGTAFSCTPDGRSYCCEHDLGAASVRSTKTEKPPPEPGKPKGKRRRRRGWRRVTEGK
# [2] = target: T2, Heat shock factor protein 1 (Mus musculus, UniProt P38532); test: HSF1 potentiators in luciferase reporter cells, confirmation, cell-based, NIH3T3, luminescence, dose retest (AID 435004); assay type: functional;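 further: stress induced by proteasome inhibitor MG132 added 30 min after compound; luciferase reporter driven by HSF1 response element in NIH3T3 cells; actives raise luminescence as potentiators of the MG132 stress response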
# T2 sequence (P38532 whole entry): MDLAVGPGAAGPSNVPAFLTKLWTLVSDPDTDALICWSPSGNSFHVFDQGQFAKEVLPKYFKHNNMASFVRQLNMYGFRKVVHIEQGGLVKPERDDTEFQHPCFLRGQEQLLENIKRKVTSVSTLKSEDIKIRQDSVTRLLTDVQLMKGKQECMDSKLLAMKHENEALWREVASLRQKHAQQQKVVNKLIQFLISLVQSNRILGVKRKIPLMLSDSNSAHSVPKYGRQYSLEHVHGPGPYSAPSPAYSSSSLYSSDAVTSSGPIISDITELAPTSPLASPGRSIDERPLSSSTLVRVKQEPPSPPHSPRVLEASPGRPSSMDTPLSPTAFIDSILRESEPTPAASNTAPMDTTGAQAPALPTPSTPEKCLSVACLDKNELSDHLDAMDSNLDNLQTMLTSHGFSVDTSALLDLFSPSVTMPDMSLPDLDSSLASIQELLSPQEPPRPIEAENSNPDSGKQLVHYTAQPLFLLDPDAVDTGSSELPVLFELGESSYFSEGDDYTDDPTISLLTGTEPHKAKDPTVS
# [3] = target: T3, Polyadenylate-binding protein 1 (Homo sapiens, UniProt P11940); test: PABP1 MLLE–PAM2 interaction inhibitors, dose response, miRNA deadenylation inhibitor project, biochemical, fluorescence polarization, Cy5-PAM2 peptide, secondary (AID 602260); assay type: functional; details: read-out: IC50_Mean
# [4] = target: T4, RNA-binding protein pos-1 (Caenorhabditis elegans, UniProt G5EF15); test: inhibitors of POS-1/mex-3 RNA binding, dose response, biochemical, fluorescence polarization (AID 1964);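 further: purified POS-1 fused to maltose binding protein made in E. coli; potency of compounds blocking POS-1 binding to fluorescent RNA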
# T4 sequence (G5EF15 whole entry): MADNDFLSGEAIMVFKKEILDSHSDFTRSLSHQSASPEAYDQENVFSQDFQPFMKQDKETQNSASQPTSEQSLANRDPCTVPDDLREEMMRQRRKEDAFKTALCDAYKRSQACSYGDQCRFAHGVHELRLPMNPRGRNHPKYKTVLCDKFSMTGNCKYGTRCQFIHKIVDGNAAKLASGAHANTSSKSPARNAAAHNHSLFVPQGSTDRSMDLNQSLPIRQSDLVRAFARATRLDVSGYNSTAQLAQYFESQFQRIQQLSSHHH
# [5] = target: T5, Zinc finger protein mex-5 (Caenorhabditis elegans, UniProt Q9XUB2); test: MEX-5/TCR-2 RNA interaction inhibitors, dose response, biochemical, C. elegans, fluorescence polarization (AID 1960)
# T5 sequence (Q9XUB2 whole entry): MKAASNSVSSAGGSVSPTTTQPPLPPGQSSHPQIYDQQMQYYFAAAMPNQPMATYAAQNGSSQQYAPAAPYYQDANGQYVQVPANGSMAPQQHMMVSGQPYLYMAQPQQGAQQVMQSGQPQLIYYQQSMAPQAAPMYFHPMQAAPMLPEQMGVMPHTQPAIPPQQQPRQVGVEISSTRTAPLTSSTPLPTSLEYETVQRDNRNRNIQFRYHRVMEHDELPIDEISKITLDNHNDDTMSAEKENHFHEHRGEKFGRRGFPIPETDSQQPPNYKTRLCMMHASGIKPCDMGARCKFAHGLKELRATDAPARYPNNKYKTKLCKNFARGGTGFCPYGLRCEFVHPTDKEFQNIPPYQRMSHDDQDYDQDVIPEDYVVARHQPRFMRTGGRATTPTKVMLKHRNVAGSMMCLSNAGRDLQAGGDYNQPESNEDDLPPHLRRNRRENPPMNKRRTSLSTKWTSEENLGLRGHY
# [6] = target: T3, Polyadenylate-binding protein 1; test: PABP1 MLLE–PAM2 binding inhibitor potency, dose response, biochemical, fluorescence polarization, FITC-PAM2 peptide (AID 602259); assay type: functional; details: read-out: IC50_Mean
# [7] = target: T6, Ubiquitin-conjugating enzyme E2 N (Homo sapiens, UniProt P61088); assay type: functional;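 further: Dose-response confirmation in a TR-FRET assay detecting UBC13-driven polyubiquitin chain formation, inhibition measured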
# T6 sequence (P61088 whole entry): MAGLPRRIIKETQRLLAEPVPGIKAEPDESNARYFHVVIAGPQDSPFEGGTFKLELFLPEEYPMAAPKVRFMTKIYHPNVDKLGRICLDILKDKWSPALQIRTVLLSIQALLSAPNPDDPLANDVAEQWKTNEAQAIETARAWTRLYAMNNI
# [8] = LGR2 antagonists, dose response, cell-based, HEK293, CRE-luciferase reporter, cherry pick, set 2 (AID 743343); assay type: functional;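 further: transfected cells were stimulated with diluted bursicon conditioned medium after compound addition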
# [9] = target: T2, Heat shock factor protein 1; test: inhibition of MG132-induced HSE-luciferase signal, confirmation, cell-based, NIH3T3, luminescence, dose retest (AID 2382); assay type: functional;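 further: NIH3T3 fibroblasts with HSF1-driven luciferase reporter stressed by proteasome inhibitor MG132; luminescence from HSF1-driven luciferase expression after 8 hours of MG132 stress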
# HEK293 = test: inhibitors of LMP1-driven NF-kB reporter, dose response, cell-based, HEK293, luciferase, cherry-pick (AID 588343); assay type: functional; details: Homo sapiens
# [10] = Luminescence Cell-Based Dose Response HTS to Identify Inhibitors of 5'UTR Stem-Loop Driven Prion Protein mRNA Translation in H4 Neuroglioblastoma Cells. [Related pubchem assays: 1827 (Project Summary), 1813 (Primary HTS)]; assay type: functional
# [11] = inhibitors of SNCA 5'UTR-driven reporter translation, confirmation, H4 neuroglioma cells, luminescence (AID 1988); assay type: functional, cell-based
# [12] = target: T7, Rac GTPase-activating protein 1 (Homo sapiens, UniProt Q9H0H5); test: MgcRacGAP GTPase-activating activity inhibitors, confirmation, biochemical, ADP Hunter fluorescence, primary and confirmatory (AID 624330); assay type: functional
# T7 sequence (Q9H0H5 whole entry): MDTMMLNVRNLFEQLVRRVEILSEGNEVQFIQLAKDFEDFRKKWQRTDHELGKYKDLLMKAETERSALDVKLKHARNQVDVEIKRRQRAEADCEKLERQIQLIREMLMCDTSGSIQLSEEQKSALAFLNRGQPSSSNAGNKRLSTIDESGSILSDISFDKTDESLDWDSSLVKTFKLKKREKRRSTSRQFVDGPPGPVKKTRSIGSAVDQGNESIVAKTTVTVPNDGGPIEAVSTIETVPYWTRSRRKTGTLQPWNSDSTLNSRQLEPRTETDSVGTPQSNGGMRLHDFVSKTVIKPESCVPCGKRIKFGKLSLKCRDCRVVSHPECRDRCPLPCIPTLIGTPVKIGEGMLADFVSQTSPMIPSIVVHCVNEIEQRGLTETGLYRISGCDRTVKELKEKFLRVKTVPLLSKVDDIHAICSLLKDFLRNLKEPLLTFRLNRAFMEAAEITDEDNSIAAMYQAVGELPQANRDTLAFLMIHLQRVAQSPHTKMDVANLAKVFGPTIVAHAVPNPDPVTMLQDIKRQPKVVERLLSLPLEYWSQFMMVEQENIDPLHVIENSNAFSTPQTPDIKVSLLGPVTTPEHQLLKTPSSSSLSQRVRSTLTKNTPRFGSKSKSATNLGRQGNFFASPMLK
# [13] = P. falciparum ATP4 D1247Y mutant growth inhibitors, dose response, NITD609-resistant line, SYBR Green, dry powder (AID 1159571); assay type: functional, cell-based;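 further: parasites synchronized at ring stage by sorbitol before testing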
# [14] = P. falciparum Dd2 growth inhibitors, dose response, SYBR Green, cherry-picked samples (AID 1159567); assay type: functional, cell-based
# [15] = P. falciparum Dd2 growth inhibitors, dose response, SYBR Green, dry powder samples (AID 1159566); assay type: functional, cell-based;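 further: potency for growth inhibition with lower SYBR green DNA signal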
# [16] = P. falciparum 3D7-ScDHODH growth inhibitors, dose response, SYBR Green, dry powder samples (AID 1159570); assay type: functional, cell-based;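 further: parasite growth measured after 72 hours of compound exposure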
# T3 sequence (P11940 whole entry, the tested form may be a part): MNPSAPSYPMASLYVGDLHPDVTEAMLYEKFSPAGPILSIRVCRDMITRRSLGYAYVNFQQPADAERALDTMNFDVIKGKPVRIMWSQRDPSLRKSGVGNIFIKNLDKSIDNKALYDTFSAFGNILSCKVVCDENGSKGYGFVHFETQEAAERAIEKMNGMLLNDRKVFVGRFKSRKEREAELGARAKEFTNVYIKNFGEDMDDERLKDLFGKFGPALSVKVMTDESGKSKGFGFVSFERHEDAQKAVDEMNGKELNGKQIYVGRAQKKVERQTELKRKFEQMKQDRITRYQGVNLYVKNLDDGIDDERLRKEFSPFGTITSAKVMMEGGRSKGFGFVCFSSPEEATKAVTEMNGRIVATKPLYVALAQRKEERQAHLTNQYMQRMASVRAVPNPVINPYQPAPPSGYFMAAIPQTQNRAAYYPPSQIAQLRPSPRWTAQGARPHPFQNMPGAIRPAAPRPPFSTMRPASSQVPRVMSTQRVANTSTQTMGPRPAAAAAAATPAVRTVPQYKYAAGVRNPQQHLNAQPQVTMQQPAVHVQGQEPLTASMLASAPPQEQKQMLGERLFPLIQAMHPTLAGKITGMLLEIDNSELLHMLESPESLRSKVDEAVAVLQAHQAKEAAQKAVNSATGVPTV
structure (smiles),measurement,setting,value
CCN(CC)CCCn1c(=S)[nH]c2ncccc2c1=O,AC50,[1],9.8 µM (active)
same,EC50,[2],> 260 µM (inactive)
COc1ccc(NC(=O)Nc2ccc(OCc3ccccc3)cc2)cn1,IC50,[3],> 66 µM (inactive)
same,EC50,[4],29.2 µM (active)
same,EC50,[5],17.9 µM (active)
same,IC50,[6],20 µM (active)
CC(C)SC1=NSC2=NC(=O)/C(=C\c3c[nH]c4ccccc34)C(=N)N21,EC50,[4],18.6 µM (active)
same,EC50,[5],> 300 µM (not active)
NCCCC[C@@H]1NC(=O)c2cc([N+](=O)[O-])cc(F)c2NCCCC[C@@H](C(N)=O)NC(=O)CNC1=O,IC50,[7],> 20 µM (inactive)
COc1ccc(OC)c(C2Nc3c(Cl)ccc(C(=O)O)c3C3C=CCC32)c1 (centres undefined),EC50,[4],> 300 µM (not active)
same,EC50,[5],40.7 µM (active)
O=C(CC1CS(=O)(=O)CC1CC(=O)Nc1ccc2c(c1)OCCO2)Nc1ccc2c(c1)OCCO2 (centres undefined),AC50,[8],45.8 µM (active)
CC1CCCN(c2nc3ccccc3nc2C(C#N)S(=O)(=O)c2cccs2)C1 (centres undefined),IC50,[3],> 66 µM (inactive)
same,EC50,[4],7.02 µM (inconclusive)
same,EC50,[5],11.2 µM (inconclusive)
same,IC50,[6],> 66 µM (inactive)
Cc1cc(C)nc(NS(=O)(=O)c2ccc(-n3cccc3)cc2)n1,AC50,[1],> 20 µM (inactive)
same,EC50,[9],> 195 µM (not active)
Cc1nc(C)c(C(=O)Nc2ncc([N+](=O)[O-])s2)o1,AC50,HEK293,3.12 µM (active)
same,EC50,[10],10.2 µM (inconclusive)
same,AC50,[1],> 20 µM (inactive)
same,EC50,[11],8.92 µM (inconclusive)
CC(C)Cn1cc(C(=O)NCCCN2CCC(C)CC2)c2c3ccccc3n(C)c2c1=O,IC50,[7],> 20 µM (inactive)
CN(c1ccc(O)cc1)c1ccc([N+](=O)[O-])c2nonc12,IC50,[12],135 µM (active)
same,AC50,[1],> 20 µM (inactive)
Cc1ccc(/C=N/Nc2[nH]cnc3ncnc2-3)cc1,EC50,[4],> 300 µM (not active)
same,EC50,[5],> 300 µM (inconclusive)
COc1ccc2c3c([nH]c2c1)[C@H](CO)N(Cc1cccc(F)c1)CC31CCN(Cc2ccccn2)CC1,AC50,[13],0.922 µM (active)
same,AC50,[14],1.07 µM (active)
same,AC50,[15],0.906 µM (active)
same,AC50,[16],0.902 µM (active)
O=C(C1CCCC1)N1CC2(C1)[C@@H](c1ccccc1)[C@H](CO)N2Cc1ccc(Cl)cc1,AC50,[13],3.62 µM (active)
same,AC50,[14],1.49 µM (active)
same,AC50,[15],1.98 µM (active)
same,AC50,[16],3.13 µM (active)
COc1ccccc1S(=O)(=O)N(C)C[C@H]1Oc2cc(/C=C/c3ccccc3)ccc2S(=O)(=O)N([C@H](C)CO)C[C@@H]1C,AC50,[13],1.78 µM (active)
same,AC50,[14],2.43 µM (active)
same,AC50,[15],1.9 µM (active)
same,AC50,[16],2.34 µM (active)
